For one data set, the target named is HCN2 (Homo sapiens (Human), UniProt Q9UL51). The data set can be described thus: HCN2 current assay using PatchXpress 7000A. The note with it: PatchXpress protocol; read-out: PX HCN2 IC50. In kind it is cell-based. The protocol:
(§1) Example 126A, Using PatchXpress 7000A
(§2) Solutions for recording HCN currents were:
The membrane voltage was then stepped back to −30 mV for a further 8 seconds.
(§3) The peak inward current measured at the end of the pulse to −110 mV (HCN1 and HCN2) or −130 mV (HCN4) was measured and any leak current subtracted to calculate the HCN current. The HCN current amplitude was measured after each control or compound addition and normalized to the control amplitude (Control A).
(§4) All experiments were performed at room temperature (approximately 22° C.).
(§5) Each test compound concentration was applied to the cell for seven (7) minutes, at which point the next cumulative concentration was applied.

A further data set concerns the target MDR1 (P-glycoprotein) (Homo sapiens (Human), UniProt P08183). The experiment in a line: in vitro. The note with it: dog, MDCK-MDR1, pH 7.4.
The target in another data set is hERG channel (Homo sapiens (Human), UniProt Q12809). The data set can be described thus: hERG assay using IonWorks Quattro. In kind it is cell-based. The note with it: IonWorks protocol; read-out: IW hERG IC50. The method, then:
Example 127A, Using IonWorks Quattro
Solutions for recording hERG currents were:
This was followed by a […] step of is to −30 mV to evoke the hERG tail current. This sequence was repeated 5 times at a frequency of 0.25 Hz (see FIG. 3). Currents were measured from the tail step at the 5th pulse and referenced to the holding current. Compounds were then incubated for 6-7 minutes prior to a second measurement of the hERG signal using an identical pulse train.
On the technique in general: The hERG channel carries a current that helps repolarise heart muscle cells.

A further data set addresses HCN4 (Homo sapiens (Human), UniProt Q9Y3Q4). The data set can be described thus: HCN4 current assay using PatchXpress 7000A. In kind it is cell-based. The settings on record: PatchXpress protocol; read-out: PX HCN4 IC50. The method, then:
as §1, §2, §3, §4, §5

A further data set addresses hNav1.5 (Homo sapiens (Human), UniProt Q14524).

Counter-ions that a name gives are not always drawn.

HCN2, sequence (Q9UL51 whole entry): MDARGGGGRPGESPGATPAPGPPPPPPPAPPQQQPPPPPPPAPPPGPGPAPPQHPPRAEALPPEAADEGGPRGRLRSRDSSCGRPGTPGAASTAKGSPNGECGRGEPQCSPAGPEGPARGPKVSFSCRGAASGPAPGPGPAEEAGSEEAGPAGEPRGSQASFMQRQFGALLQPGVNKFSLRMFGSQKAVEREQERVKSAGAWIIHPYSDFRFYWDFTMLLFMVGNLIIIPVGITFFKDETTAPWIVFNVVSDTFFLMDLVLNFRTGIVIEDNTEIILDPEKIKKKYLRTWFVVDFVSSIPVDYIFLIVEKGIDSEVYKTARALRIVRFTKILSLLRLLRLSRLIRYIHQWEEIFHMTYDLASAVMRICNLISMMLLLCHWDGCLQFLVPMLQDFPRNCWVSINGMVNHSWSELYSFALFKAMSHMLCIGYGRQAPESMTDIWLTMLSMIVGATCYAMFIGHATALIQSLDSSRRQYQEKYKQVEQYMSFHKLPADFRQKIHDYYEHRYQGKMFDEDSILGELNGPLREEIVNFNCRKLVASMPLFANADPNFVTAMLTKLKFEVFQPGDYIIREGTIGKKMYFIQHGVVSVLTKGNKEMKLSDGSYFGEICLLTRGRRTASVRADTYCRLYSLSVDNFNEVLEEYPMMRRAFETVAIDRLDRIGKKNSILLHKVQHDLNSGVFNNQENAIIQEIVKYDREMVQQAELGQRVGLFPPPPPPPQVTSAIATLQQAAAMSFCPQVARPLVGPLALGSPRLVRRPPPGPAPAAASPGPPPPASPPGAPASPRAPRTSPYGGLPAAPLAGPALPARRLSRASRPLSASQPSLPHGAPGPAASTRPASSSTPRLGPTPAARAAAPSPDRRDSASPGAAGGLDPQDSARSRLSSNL
hNav1.5, sequence (Q14524 whole entry): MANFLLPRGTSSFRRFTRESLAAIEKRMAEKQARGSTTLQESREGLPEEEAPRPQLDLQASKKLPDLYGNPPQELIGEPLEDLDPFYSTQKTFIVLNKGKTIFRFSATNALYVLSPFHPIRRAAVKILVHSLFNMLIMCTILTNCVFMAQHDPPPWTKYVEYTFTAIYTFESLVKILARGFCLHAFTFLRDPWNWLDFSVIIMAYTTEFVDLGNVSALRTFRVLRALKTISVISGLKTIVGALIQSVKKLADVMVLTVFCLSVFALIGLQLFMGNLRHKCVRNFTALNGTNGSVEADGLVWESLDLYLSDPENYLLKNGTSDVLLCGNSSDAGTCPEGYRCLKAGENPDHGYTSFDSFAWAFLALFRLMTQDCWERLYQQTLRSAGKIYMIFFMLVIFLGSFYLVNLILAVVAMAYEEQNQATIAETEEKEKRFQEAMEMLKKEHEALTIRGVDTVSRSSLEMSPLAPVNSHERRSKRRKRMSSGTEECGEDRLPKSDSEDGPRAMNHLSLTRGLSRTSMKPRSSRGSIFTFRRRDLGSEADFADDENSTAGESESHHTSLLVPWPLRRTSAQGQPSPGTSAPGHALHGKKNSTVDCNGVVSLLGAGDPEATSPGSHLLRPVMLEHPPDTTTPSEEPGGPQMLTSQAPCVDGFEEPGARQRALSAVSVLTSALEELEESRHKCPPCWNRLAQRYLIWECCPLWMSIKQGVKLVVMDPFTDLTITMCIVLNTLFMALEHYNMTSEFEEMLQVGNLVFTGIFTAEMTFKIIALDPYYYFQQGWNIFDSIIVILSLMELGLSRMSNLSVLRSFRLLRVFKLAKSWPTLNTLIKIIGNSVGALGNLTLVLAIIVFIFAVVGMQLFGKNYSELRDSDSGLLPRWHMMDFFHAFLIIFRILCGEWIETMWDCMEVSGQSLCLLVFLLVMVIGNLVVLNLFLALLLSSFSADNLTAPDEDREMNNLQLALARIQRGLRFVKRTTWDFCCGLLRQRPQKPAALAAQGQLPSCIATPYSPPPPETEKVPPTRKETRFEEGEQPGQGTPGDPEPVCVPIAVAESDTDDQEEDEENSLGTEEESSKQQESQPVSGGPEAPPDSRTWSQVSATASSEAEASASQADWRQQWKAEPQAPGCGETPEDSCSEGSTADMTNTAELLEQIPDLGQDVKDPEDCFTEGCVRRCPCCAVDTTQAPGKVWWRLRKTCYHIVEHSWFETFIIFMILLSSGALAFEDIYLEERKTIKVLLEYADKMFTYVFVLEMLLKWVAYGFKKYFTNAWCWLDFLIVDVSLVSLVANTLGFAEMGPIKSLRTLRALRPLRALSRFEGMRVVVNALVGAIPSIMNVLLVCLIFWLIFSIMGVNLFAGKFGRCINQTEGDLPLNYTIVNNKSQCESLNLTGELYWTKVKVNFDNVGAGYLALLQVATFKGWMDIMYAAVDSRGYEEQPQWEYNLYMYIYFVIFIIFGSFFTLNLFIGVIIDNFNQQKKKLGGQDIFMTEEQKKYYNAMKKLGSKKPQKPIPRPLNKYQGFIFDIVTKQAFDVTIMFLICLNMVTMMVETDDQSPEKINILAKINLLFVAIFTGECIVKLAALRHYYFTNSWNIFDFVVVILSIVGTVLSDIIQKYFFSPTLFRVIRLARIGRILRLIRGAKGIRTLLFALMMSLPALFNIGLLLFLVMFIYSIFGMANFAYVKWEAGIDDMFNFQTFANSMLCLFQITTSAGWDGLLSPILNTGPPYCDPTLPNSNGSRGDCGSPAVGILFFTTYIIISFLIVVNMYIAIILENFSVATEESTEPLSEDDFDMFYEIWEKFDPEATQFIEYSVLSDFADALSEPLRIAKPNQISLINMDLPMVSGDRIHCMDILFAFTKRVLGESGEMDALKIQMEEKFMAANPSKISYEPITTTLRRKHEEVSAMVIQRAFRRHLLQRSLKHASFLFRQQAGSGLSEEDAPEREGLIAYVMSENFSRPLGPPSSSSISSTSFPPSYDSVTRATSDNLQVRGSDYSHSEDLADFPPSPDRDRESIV
MDR1 (P-glycoprotein), sequence (P08183 whole entry): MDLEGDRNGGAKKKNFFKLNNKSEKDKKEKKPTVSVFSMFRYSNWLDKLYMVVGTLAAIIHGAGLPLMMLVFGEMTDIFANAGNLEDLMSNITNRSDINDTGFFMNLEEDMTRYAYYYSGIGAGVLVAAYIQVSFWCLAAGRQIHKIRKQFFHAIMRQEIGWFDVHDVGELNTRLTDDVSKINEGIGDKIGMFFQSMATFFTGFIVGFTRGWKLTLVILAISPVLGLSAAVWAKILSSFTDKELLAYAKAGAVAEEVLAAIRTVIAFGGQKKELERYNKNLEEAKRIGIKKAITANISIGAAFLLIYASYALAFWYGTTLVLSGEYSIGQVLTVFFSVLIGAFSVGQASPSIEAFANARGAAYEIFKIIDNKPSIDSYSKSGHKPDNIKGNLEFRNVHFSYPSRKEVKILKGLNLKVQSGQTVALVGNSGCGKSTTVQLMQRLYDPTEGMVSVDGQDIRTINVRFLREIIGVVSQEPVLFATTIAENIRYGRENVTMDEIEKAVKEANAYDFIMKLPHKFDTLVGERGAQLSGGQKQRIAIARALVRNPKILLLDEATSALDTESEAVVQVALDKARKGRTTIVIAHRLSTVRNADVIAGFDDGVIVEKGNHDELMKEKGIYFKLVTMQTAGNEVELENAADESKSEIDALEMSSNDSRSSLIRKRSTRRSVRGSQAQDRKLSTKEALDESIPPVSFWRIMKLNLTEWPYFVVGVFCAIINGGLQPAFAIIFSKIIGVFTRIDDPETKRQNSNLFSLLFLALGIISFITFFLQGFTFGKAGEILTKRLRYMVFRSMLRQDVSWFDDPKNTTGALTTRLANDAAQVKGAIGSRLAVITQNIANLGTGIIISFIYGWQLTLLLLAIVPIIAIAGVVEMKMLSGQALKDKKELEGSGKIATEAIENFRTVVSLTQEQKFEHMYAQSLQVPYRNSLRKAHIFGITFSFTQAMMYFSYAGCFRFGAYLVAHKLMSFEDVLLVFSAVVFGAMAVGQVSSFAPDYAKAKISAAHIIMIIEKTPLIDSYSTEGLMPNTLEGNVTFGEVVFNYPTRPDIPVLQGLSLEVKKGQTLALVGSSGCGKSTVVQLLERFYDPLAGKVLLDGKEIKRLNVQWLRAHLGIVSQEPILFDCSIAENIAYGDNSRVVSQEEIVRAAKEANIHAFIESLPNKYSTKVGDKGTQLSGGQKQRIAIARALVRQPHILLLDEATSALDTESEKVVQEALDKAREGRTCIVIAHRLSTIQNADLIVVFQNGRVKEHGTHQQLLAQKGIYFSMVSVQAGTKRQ
Description for MDR1 (P-glycoprotein): Test compounds were added (10 μM, 0.1% DMSO final, n=2) to donor compartments of the Transwell plate assembly in assay buffer (Hanks balanced salt solution supplemented with 25 mM HEPES, adjusted to pH 7.4) for both apical to basolateral (A>B) and basolateral to apical (B>A) measurements. A parallel series of incubations were performed in the presence of the transporter inhibitor elacridar (5 μM) which was added to both compartments in the transwell plate. Incubations were performed at 37° C., with samples removed from both donor and acceptor chambers at T=0 and 1 hour for recovery assessment and compound analysed by mass spectrometry (LC-MS/MS), including an analytical internal standard.
Apparent permeability (Papp) values were determined from the relationship:
Where V is the volume of each Transwell compartment (apical 125 μL, basolateral 600 μL), and concentrations are the relative MS responses for compound (normalized to internal standard) in the donor chamber before incubation and acceptor chamber at the end of the incubation.
Area=area of cells exposed for drug transfer (0.33 cm2).
Efflux ratios (Papp B>A/Papp A>B) were calculated for each compound from the mean Papp values in each direction. […] The efflux ratios were also calculated in the same way from the runs carried out in the presence of the inhibitor. The net flux is the ratio of the efflux in the absence of inhibitor to that in the presence of inhibitor.
Lucifer Yellow (LY) was added to the apical buffer in all wells to assess viability of the cell layer.
Compound recovery from the wells was determined from MS responses (normalized to internal standard) in donor and acceptor chambers at the end of incubation compared to response in the donor chamber pre-incubation.
Description for hNav1.5: Solutions for recording Nav1.5 currents were:
Electrophysiological recordings were made from a human embryonic kidney (HEK) cell line stably expressing the full length hNav1.5. Population patch clamp measurements were made in the perforated patch clamp configuration (100 μg ml^−1 amphotericin) at room temperature (approx. 22° C.) using an IonWorks Quattro from Molecular Devices. […] Currents were first measured under control (pre-compound addition) conditions. […] Currents were measured from the depolarising step at the 15th pulse and referenced to the holding current.

In general, IC50 refers to the point on the concentration scale where inhibition reaches its midpoint. The term efflux ratio denotes the permeability from basolateral to apical divided by that in the opposite direction, in the common usage. Consider `Cc1ccc(-c2noc3ccccc23)c([C@@H](N)Cc2ccccn2)c1` [Example 36, (S)-1-[2-(Benzo[d]isoxazol-3-yl)-5-methylphenyl]-2-(pyridine-2-yl)ethan-1-amine hydrochloride], for which the IC50 on HCN2 was 1.2 µM; at hERG channel, 5 µM; at HCN4, > 30 µM; at hNav1.5, 5.6 µM. Besides, at MDR1 (P-glycoprotein), the efflux ratio at 1 h, 10 μM came out at 0.8.

As for `COCc1ccc2c(-c3ccccc3[C@@H](N)Cc3ccccn3)noc2c1` [Example 39, (S)-1-[2-(6-Methoxymethylbenzo[d]isoxazol-3-yl)phenyl]-2-(pyridine-2-yl)ethan-1-amine], the IC50 at HCN2 is 4 µM; at hERG channel it was 7.6 µM; at HCN4, > 30 µM; at hNav1.5, 27.3 µM. Also, at MDR1 (P-glycoprotein), the efflux ratio at 1 h, 10 μM turned out to be 2.7.

`N[C@@H](Cc1ccccn1)c1ccccc1-c1noc2ccccc12` [Example 42, (S)-1-[2-(Benzo[d]isoxazol-3-yl)phenyl]-2-(pyridine-2-yl)ethan-1-amine hydrochloride]: the IC50 on HCN2 was 1.1 µM; at hERG channel it was 3.8 µM; on HCN4, > 30 µM; against hNav1.5 it was 6.9 µM. Besides, the efflux ratio at 1 h, 10 μM at MDR1 (P-glycoprotein) turned out to be 1.5.

Take `N[C@@H](Cc1ncccn1)c1ccccc1-c1noc2ccccc12` [Example 56, (S)-1-[2-(Benzo[d]isoxazol-3-yl)phenyl]-2-(pyrimidine-2-yl)ethan-1-amine]: the half-inhibitory concentration (IC50) at HCN2 amounted to 1.2 µM; at hERG channel, 14.4 µM; on HCN4, 30 µM; against hNav1.5, 7 µM. The efflux ratio at 1 h, 10 μM on MDR1 (P-glycoprotein) is 2.5.

Consider `N[C@@H](Cc1cccc(C(F)(F)F)n1)c1ccccc1-c1noc2ccccc12` [Example 62, (S)-1-[2-(Benzo[d]isoxazol-3-yl)phenyl]-2-(6-trifluoromethylpyridin-2-yl)ethan-1-amine hydrochloride], for which the IC50 stood at 0.7 µM on HCN2, 3.2 µM on hERG channel, 19.2 µM on HCN4 and 3.8 µM against hNav1.5.

As for `CC(C)n1nc(-c2ccccc2[C@@H](N)Cc2cccc(C#N)n2)c2ccccc21` [Example 67, (S)-2-(6-Cyanopyridine-2-yl)-1-[2-(1-isopropyl-1H-indazole-3-yl)phenyl]ethan-1-amine], the IC50 is 1.3 µM at HCN2, 3.7 µM on hERG channel, 19.5 µM on HCN4 and 9.5 µM on hNav1.5.

On to `N#Cc1cccnc1C[C@H](N)c1ccccc1-c1noc2ccccc12` [Example 75, (S)-1-[2-(Benzo[d]isoxazol-3-yl)phenyl]-2-(3-cyanopyridin-2-yl)ethan-1-amine], for which the IC50 at HCN2 is 1.2 µM; on hERG channel, 1.5 µM; at HCN4 it was 6.6 µM; against hNav1.5, 6.6 µM.

Consider `N[C@@H](Cc1nc(CCO)ccc1F)c1ccccc1-c1noc2ccccc12` [Example 77, (S)-2-(6-{2-Amino-2-(2-benzo[d]isoxazol-3-yl)phenyl]ethyl}-5-fluoropyridin-2-yl)ethan-1-ol hydrochloride], for which the half-inhibitory concentration (IC50) was 0.9 µM at HCN2, > 33 µM on hERG channel, 10.4 µM on HCN4 and 6.5 µM on hNav1.5.

In the case of `Cc1cccc(-c2noc3ccccc23)c1[C@@H](N)Cc1ccccn1` [Example 84, (S)-1-[2-(Benzo[d]isoxazol-3-yl)-6-methylphenyl]-2-(pyridine-2-yl)ethan-1-amine hydrochloride], the half-maximal inhibitory concentration (IC50) on HCN2 was found to be 0.9 µM; on hERG channel it was 3 µM; on HCN4 it was 27 µM; at hNav1.5, 5.7 µM. On MDR1 (P-glycoprotein), the efflux ratio at 1 h, 10 μM turned out to be 0.8.

As to `CN(C)C(=O)c1cccc(C[C@H](N)c2ccccc2-c2noc3ccccc23)n1` [Example 89, (S)-6-{2-Amino-2-[2-(Benzo[d]isoxazol-3-yl)phenyl]ethyl-N,N-dimethylpyridine-2-carboxamide hydrochloride], the IC50 is 3.1 µM at HCN2, 19.1 µM at hERG channel, > 30 µM at HCN4 and 5.8 µM on hNav1.5. The efflux ratio at 1 h, 10 μM on MDR1 (P-glycoprotein) was 24.6.

Turning to `Cn1cc(-c2cccc(C[C@H](N)c3ccccc3-c3noc4ccccc34)n2)cn1` [Example 90, (S)-1-[2-(Benzo[d]isoxazol-3-yl)phenyl]-2-[6-(1-methyl-1H-pyrazol-4-yl)pyridine-2-yl]ethan-1-amine hydrochloride], the IC50 on HCN2 is 2.9 µM; on hERG channel, 4.1 µM; on HCN4, 7.1 µM; against hNav1.5, 10.6 µM.

As for `N[C@@H](Cc1cccc(-c2cn[nH]c2)n1)c1ccccc1-c1noc2ccccc12` [Example 91, (S)-2-[6-(1H-Pyrazol-4-yl)pyridine-2-yl])-1-[2-(benzo[d]isoxazol-3-yl)phenyl]ethan-1-amine hydrochloride], the IC50 on HCN2 was 1 µM; on hERG channel it was 1.8 µM; on HCN4, 9.9 µM; on hNav1.5, 3.4 µM. In addition, the efflux ratio at 1 h, 10 μM on MDR1 (P-glycoprotein) was found to be 23.1.

Regarding `Cc1ccc(C[C@H](N)c2ccccc2-c2noc3ccccc23)nc1` [Example 92, (S)-1-[2-(Benzo[d]isoxazol-3-yl)phenyl]-2-(5-methylpyridine-2-yl)ethan-1-amine hydrochloride], the IC50 at HCN2 was 1.9 µM; on hERG channel, 6.4 µM; at HCN4, > 30 µM; on hNav1.5 it was 1.4 µM.

In the case of `N#Cc1ccc(C[C@H](N)c2ccccc2-c2noc3ccccc23)nc1` [Example 93, (S)-1-[2-(Benzo[d]isoxazol-3-yl)phenyl]-2-(5-cyanopyridine-2-yl)ethan-1-amine hydrochloride], the concentration for half-maximal inhibition (IC50) at HCN2 is 1.8 µM; at hERG channel, 7.5 µM; at HCN4, > 30 µM; against hNav1.5 it was 2.2 µM.

Turning to `CCc1cccc(C[C@H](N)c2ccccc2-c2noc3ccccc23)n1` [Example 101, (S)-1-[2-(Benzo[d]isoxazol-3-yl)phenyl]-2-(6-ethylpyridine-2-yl)ethan-1-amine hydrochloride], the IC50 at HCN2 turned out to be 0.7 µM; on hERG channel it was 2.8 µM; on HCN4 it was 13.1 µM; against hNav1.5 it was 1.6 µM.

Regarding `CN(C)C(=O)CCc1cccc(C[C@H](N)c2ccccc2-c2noc3ccccc23)n1` [Example 109, (S)-3-(6-{2-Amino-2-[2-(benzo[d]isoxazol-3-yl)phenyl]ethyl}pyridine-2-yl)-N,N-dimethylpropanamide hydrochloride], the IC50 at HCN2 was 2.4 µM; at hERG channel, 4.3 µM; on HCN4, > 30 µM; against hNav1.5, 3.2 µM.

Turning to `Cc1cccc(C[C@H](N)c2c(F)cccc2-c2noc3ccccc23)n1` [Example 112, (S)-1-[2-(Benzo[d]isoxazol-3-yl)-6-fluorophenyl]-2-(6-methylpyridin-2-yl)ethan-1-amine hydrochloride], the IC50 stood at 2 µM at HCN2, 10.2 µM at hERG channel, 4.2 µM on HCN4 and 24.2 µM at hNav1.5.

Regarding `N[C@@H](Cc1cc(Br)ccn1)c1ccccc1-c1noc2ccccc12` [Example 117, (S)-1-[2-(Benzo[d]isoxazol-3-yl)phenyl]-2-(4-bromopyridine-2-yl)ethan-1-amine hydrochloride)], the IC50 on HCN2 was 1.4 µM; on hERG channel it was 2.2 µM; at HCN4 it was 12.2 µM; on hNav1.5 it was 2.7 µM.

Regarding `N[C@@H](Cc1cccc(-c2ncco2)n1)c1ccccc1-c1noc2ccccc12` [Example 118, (S)-1-[2-(Benzo[d]isoxazol-3-yl)phenyl]-2-[6-(oxazol-2-yl)pyridine-2-yl]ethan-1-amine hydrochloride], the IC50 on HCN2 was found to be 1.7 µM; on hERG channel, 3.1 µM; on HCN4, 5.2 µM; at hNav1.5 it was 7.8 µM.

As to `N[C@@H](Cc1cccc(N2CCCC2)n1)c1ccccc1-c1noc2ccccc12` [Example 119, (S)-1-[2-(Benzo[d]isoxazol-3-yl)phenyl]-2-[6-(pyrrolidin-1-yl)pyridine-2-yl]ethan-1-amine hydrochloride], the IC50 is 0.8 µM on HCN2, 1.3 µM at hERG channel, 2.1 µM on HCN4 and 3.3 µM against hNav1.5.

Regarding `Nc1cccc(C[C@H](N)c2ccccc2-c2noc3ccccc23)n1` [Example 121, (S)-6-{2-Amino-2-[2-(benzo[d]isoxazol-3-yl)phenyl]ethyl}pyridine-2-amine hydrochloride], the IC50 at HCN2 is 1.3 µM; at hERG channel, 8.6 µM; on HCN4, > 30 µM; at hNav1.5, 1.6 µM.

On to `COC(=O)Nc1cccc(C[C@H](N)c2ccccc2-c2noc3ccccc23)n1` [Example 124, Methyl (S)-(6-{2-Amino-2-[2-(benzo[d]isoxazol-3-yl)phenyl]ethyl}pyridine-2-yl)carbamate hydrochloride], for which the IC50 on HCN2 is 2.1 µM; on hERG channel it was 2.3 µM; at HCN4, > 30 µM; on hNav1.5, 1.3 µM.

The record behind these values is patent US20240190854A1, “PYRIMIDINE OR PYRIDINE DERIVATIVES USEFUL AS HCN2 MODULATORS” (King's College London, priority 2021, published 2024).
